Data taken from patent publication US20250115597A1, “TYK2 INHIBITORS AND COMPOSITIONS AND METHODS THEREOF” (LYNK PHARMACEUTICALS CO. LTD., priority 2021, published 2025).
Where two headings read alike, the source gives them in different places.

Key:
[1] = molecular target: T1, Ba/F3-FL-TYK2-P760L cells (Homo sapiens, UniProt P29597, P760L, cells depend on it); experiment: Anti-proliferative assay, Ba/F3-FL-TYK2-P760L cells (Cell-Titer Glo); assay type: cell-based; details: 72 h, read-out: BaF3-FL-T2P760L IC50
T1 construct: BaF3-FL-T2P760L (nM)
T1 sequence (P29597 whole entry P760L): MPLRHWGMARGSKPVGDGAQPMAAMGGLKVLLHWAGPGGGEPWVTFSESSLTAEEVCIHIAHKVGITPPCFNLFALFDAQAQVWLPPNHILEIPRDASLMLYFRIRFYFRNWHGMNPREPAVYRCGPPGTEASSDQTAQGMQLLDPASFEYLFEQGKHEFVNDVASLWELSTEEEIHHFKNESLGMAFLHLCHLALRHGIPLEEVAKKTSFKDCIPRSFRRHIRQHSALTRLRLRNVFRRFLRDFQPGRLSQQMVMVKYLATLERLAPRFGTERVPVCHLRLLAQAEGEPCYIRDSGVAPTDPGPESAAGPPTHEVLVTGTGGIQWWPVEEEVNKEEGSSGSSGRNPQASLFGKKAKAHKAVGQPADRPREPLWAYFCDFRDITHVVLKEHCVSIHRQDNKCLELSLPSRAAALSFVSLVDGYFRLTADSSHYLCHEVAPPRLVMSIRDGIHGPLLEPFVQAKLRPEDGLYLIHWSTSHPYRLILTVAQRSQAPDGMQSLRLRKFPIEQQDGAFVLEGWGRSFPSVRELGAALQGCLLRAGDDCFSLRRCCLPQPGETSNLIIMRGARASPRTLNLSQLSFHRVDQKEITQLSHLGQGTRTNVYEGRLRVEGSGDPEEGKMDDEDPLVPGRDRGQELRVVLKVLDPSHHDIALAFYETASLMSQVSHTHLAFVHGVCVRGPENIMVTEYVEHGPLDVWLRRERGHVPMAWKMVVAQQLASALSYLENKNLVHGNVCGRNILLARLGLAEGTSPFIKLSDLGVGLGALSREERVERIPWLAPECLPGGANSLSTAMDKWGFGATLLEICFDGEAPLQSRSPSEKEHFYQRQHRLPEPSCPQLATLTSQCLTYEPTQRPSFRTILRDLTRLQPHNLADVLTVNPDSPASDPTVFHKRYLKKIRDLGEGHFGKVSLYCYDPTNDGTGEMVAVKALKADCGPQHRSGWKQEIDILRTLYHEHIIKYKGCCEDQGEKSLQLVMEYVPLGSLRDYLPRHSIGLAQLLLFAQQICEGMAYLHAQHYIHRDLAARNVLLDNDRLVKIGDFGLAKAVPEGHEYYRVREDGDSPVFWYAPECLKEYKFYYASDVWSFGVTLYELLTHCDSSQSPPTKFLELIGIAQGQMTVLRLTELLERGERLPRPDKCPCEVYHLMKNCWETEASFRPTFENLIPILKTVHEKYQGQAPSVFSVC
Outline: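 Compound exposure ran 72 h at 37 °C in 5% CO2 across nine 3-fold concentrations from a 20 μM top dose, added 24 h after seeding 2000 cells/well.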

[2] = Microsomal metabolic stability assay; assay type: in vitro ADME; details: pH 7.4, 0.5 mg/mL protein, 1 μM compound
Description: Microsomal Metabolic Stability Assay
Microsomes were pre-incubated with test compound or control compounds for 5 min at 37° C. in 100 mM potassium phosphate buffer, pH 7.4, 1.0 mM EDTA. The reaction was initiated by addition of 15 μL of the NADPH regenerating system to 30 μL of each incubation mixture per time point. The final incubation condition was composed of 0.5 mg/mL microsomal protein, 1 μM test article/positive control, 2 mM NADPH. The 0-minute samples were prepared by addition of a 30 μL aliquot of each incubation mixture to 135 μL quench reagent to precipitate proteins. And then a 15 μL aliquot of the NADPH regenerating system was added. At 5, 15, 30 and 45 minutes, the reaction will be stopped by the addition of cold acetonitrile solution containing internal standard. The samples taken at all time points were centrifuged at 5000×g for 15 minutes. 50 μL of supernatant are taken into 96-well assay plates pre-added with 50 μL ultrapure water, and then analyzed by LC/MS/MS.
Concentrations of test articles, control compounds in the samples were determined by using LC/MS/MS method. Plotting of the chromatograms and peak area integrations are carried out by Analyst (AB Sciex).
n the determination of the in vitro elimination constant (ke) of the control compounds, the analyte/internal standard peak area ratios will be converted to percentage remaining (% Remaining) with the following equation: […]
The slope was measured by the natural logarithm of the percentage of the residual compound and time, T1/2 was calculated according to the following formula.

[3] = dog liver microsomes, read-out: Dog LM Clint
[4] = dog liver microsomes, read-out: Dog LM T½
[5] = human liver microsomes, read-out: Human LM Clint
[6] = human liver microsomes, read-out: Human LM T½
[7] = rat liver microsomes, read-out: Rat LM Clint
[8] = rat liver microsomes, read-out: Rat LM T½

GI50 [1] | microsomal CLint at 1 μM [2, 3] | half-life at 1 μM [2, 4] | microsomal CLint at 1 μM [2, 5] | half-life at 1 μM [2, 6] | microsomal CLint at 1 μM [2, 7] | half-life at 1 μM [2, 8] | Compound
100 nM | 18.7 µL/min/mg | 1.41 h | 53 µL/min/mg | 0.437 h | 55.6 µL/min/mg | 0.417 h | [2H]C([2H])([2H])NC(=O)c1cnc(NC(=O)C2CC2)cc1Nc1cn(C)c2c(F)cn(CC(F)(F)F)c(=O)c12 [Example 123, 6-(Cyclopropanecarboxamido)-4-((7-fluoro-1-methyl-4-oxo-5-(2,2,2-trifluoroethyl)-4,5-dihydro-1H-pyrrolo[3,2-c]pyridin-3-yl)amino)-N-(methyl-d3)nicotinamide]
42.2 nM | 19.9 µL/min/mg | 1.16 h | 135 µL/min/mg | 0.171 h | 115 µL/min/mg | 0.201 h | [2H]C([2H])([2H])NC(=O)c1cnc(Nc2cc(F)c(F)cn2)cc1Nc1cn(C)c2c(F)cn(C)c(=O)c12 [Example 121, 6-((4,5-Difluoropyridin-2-yl)amino)-4-((7-fluoro-1,5-dimethyl-4-oxo-4,5-dihydro-1H-pyrrolo[3,2-c]pyridin-3-yl)amino)-N-(methyl-d3)nicotinamide]
56.7 nM | 33.1 µL/min/mg | 1.74 h | 89.9 µL/min/mg | 0.642 h | 181 µL/min/mg | 0.319 h | [2H]C([2H])([2H])NC(=O)c1cnc(Nc2ccc(F)cn2)cc1Nc1cn(C)c2ccn(CC)c(=O)c12 [Example 99, 4-[(5-Ethyl-1-methyl-4-oxo-pyrrolo[3,2-c]pyridin-3-yl)amino]-6-[(5-fluoro-2-pyridyl)amino]-N-(methyl-d3)pyridine-3-carboxamide]
428 nM | < 11.5 µL/min/mg | > 2 h | < 11.5 µL/min/mg | > 2 h | < 11.5 µL/min/mg | > 2 h | [2H]C([2H])([2H])NC(=O)c1cnc(NC(=O)C2CC2)cc1Nc1csc2cnn(C(C)C(F)(F)F)c(=O)c12 (stereo not shown) [Example 185, 6-(Cyclopropanecarboxamido)-N-(methyl-d3)-4-((4-oxo-5-(1,1,1-trifluoropropan-2-yl)-4,5-dihydrothieno[2,3-d]pyridazin-3-yl)amino)nicotinamide]
249 nM | 16.2 µL/min/mg | 1.43 h | 16.9 µL/min/mg | 1.37 h | 87 µL/min/mg | 0.266 h | [2H]C([2H])([2H])NC(=O)c1nnc2cc1Nc1cc(cc(-c3ncn(C)n3)c1OC)CN(C)Cc1nc(ccc1F)N2 [Example 72, 18-Fluoro-10-methoxy-N-(methyl-d3)-15-methyl-11-(1-methyl-1H-1,2,4-triazol-3-yl)-2,4,5,8,15,21-hexaazatetracyclo[15.3.1.1^{3,7}.1^{9,13}]tricosa-1(20),3,5,7(23),9(22),10,12,17(21),18-nonaene-6-carboxamide]
109 nM | 16.5 µL/min/mg | 1.4 h | 57.4 µL/min/mg | 0.402 h | 66.5 µL/min/mg | 0.347 h | [2H]C([2H])([2H])NC(=O)c1cnc(NC(=O)C2CC2)cc1Nc1csc2c(Cl)cn(C)c(=O)c12 [Example 172, 4-((7-Chloro-5-methyl-4-oxo-4,5-dihydrothieno[3,2-c]pyridin-3-yl)amino)-6-(cyclopropanecarboxamido)-N-(methyl-d3)nicotinamide]
247 nM | 1.15 µL/min/mg | 20.1 h | 6.2 µL/min/mg | 3.73 h | 26.1 µL/min/mg | 0.884 h | [2H]C([2H])([2H])NC(=O)c1cnc(NC(=O)C2CC2)cc1Nc1csc2cnn(CC(F)(F)F)c(=O)c12 [Example 189, 6-(Cyclopropanecarboxamido)-N-(methyl-d3)-4-((4-oxo-5-(2,2,2-trifluoroethyl)-4,5-dihydrothieno[2,3-d]pyridazin-3-yl)amino)nicotinamide]
488 nM | 37.3 µL/min/mg | 0.62 h | 32.6 µL/min/mg | 0.709 h | 114 µL/min/mg | 0.202 h | CCn1ccc2c(c(Nc3cc(Nc4ncc(F)cc4F)ncc3C(=O)NC)cn2C)c1=O [Example 98, 6-((3,5-Difluoropyridin-2-yl)amino)-4-((5-ethyl-1-methyl-4-oxo-4,5-dihydro-1H-pyrrolo[3,2-c]pyridin-3-yl)amino)-N-methylnicotinamide]
139 nM | 20 µL/min/mg | 1.16 h | < 11.5 µL/min/mg | > 2 h | < 11.5 µL/min/mg | > 2 h | [2H]C([2H])([2H])NC(=O)c1cnc2cc1Nc1cc(cc(-c3ncc(F)cn3)c1OC)COCc1nc(ccc1F)N2 [Example 86, 18-Fluoro-11-(5-fluoropyrimidin-2-yl)-10-methoxy-N-(methyl-d3)-15-oxa-2,4,8,21-tetraazatetracyclo[15.3.1.1^{3,7}.1^{9,13}]tricosa-1(20),3,5,7(23),9(22),10,12,17(21),18-nonaene-6-carboxamide]
105 nM | 2.94 µL/min/mg | 7.85 h | 12.8 µL/min/mg | 1.81 h | 16.9 µL/min/mg | 1.37 h | CNC(=O)c1cnc(NC(=O)C2CC2)cc1Nc1csc2c(Cl)cn(C)c(=O)c12 [Example 171, 4-((7-Chloro-5-methyl-4-oxo-4,5-dihydrothieno[3,2-c]pyridin-3-yl)amino)-6-(cyclopropanecarboxamido)-N-methylnicotinamide]
162 nM | – | – | 64.4 µL/min/mg | 0.359 h | – | – | [2H]C([2H])([2H])NC(=O)c1cnc(NC(=O)C2CC2)cc1Nc1cn(CCOC)c2ccn(C(C)C(F)(F)F)c(=O)c12 (stereo not shown) [Example 201, 6-(Cyclopropanecarboxamido)-4-((1-(2-methoxyethyl)-4-oxo-5-(1,1,1-trifluoropropan-2-yl)-4,5-dihydro-1H-pyrrolo[3,2-c]pyridin-3-yl)amino)-N-(methyl-d3)nicotinamide]
648 nM | – | – | < 11.5 µL/min/mg | > 2 h | – | – | [2H]C([2H])([2H])NC(=O)c1cnc(NC(=O)C2CC2)cc1Nc1cn(C)c2cnn(C(C)C(F)(F)F)c(=O)c12 (stereo not shown) [Example 200, 6-(Cyclopropanecarboxamido)-N-(methyl-d3)-4-((1-methyl-4-oxo-5-(1,1,1-trifluoropropan-2-yl)-4,5-dihydro-1H-pyrrolo[2,3-d]pyridazin-3-yl)amino)nicotinamide]
560 nM | – | – | 40 µL/min/mg | 0.578 h | 8.8 µL/min/mg | 2.62 h | [2H]C([2H])([2H])NC(=O)c1cnc(NC(=O)C2CC2)cc1Nc1cn(C)c2ncn(CC(F)(F)F)c(=O)c12 [Example 195, 6-(Cyclopropanecarboxamido)-N-(methyl-d3)-4-((7-methyl-4-oxo-3-(2,2,2-trifluoroethyl)-4,7-dihydro-3H-pyrrolo[2,3-d]pyrimidin-5-yl)amino)nicotinamide]
147 nM | < 11.5 µL/min/mg | > 2 h | 18.2 µL/min/mg | 1.27 h | 25.9 µL/min/mg | 0.892 h | [2H]C([2H])([2H])NC(=O)c1cnc(NC(=O)C2CC2)cc1Nc1csc2c(Cl)cn(C([2H])([2H])[2H])c(=O)c12 [Example 174, 4-((7-Chloro-5-(methyl-d3)-4-oxo-4,5-dihydrothieno[3,2-c]pyridin-3-yl)amino)-6-(cyclopropanecarboxamido)-N-(methyl-d3)nicotinamide]
